According to patent US6737537B2, “Platinum (II) antitumor compounds” (Parker Hughes Institute, priority 1999, dated 2004):

Tests used:
NALM-6 (Leukemia) = experiment: MTT cytotoxicity assay, NALM-6 cells, 48 hours; format: cell-based, human; conditions: 48 hours incubation, read-out: IC50 [MTT Assays] NALM-6 (Leukemia)
Procedure: (§1) The cells were incubated with concentrations ranging from 0.1 μM to 250 μM of the appropriate compound in 96-well plates for 48 hours. Cytotoxicity was determined by MTT [(3-[4,5-dimethylthiazol-2-yl]-2,5-diphenyl tetrazolium bromide)] assays. The results are graphed in FIG. 1a for NALM-6 cells and FIG. 1b for MOLT-3 cells.
(§2) Cytotoxicity was determined by MTT assays and the IC50 values were determined using Graphpad Prism Software.

MOLT-3 (Leukemia) = experiment: MTT cytotoxicity assay, MOLT-3 cells, 48 hours; format: cell-based, human; conditions: 48 hours incubation, read-out: IC50 [MTT Assays] MOLT-3 (Leukemia)
Procedure: as §1, §2

[1] = test system: U266BL (Multiple Myeloma); experiment: MTT cytotoxicity assay, U266BL cells, 48 hours; format: cell-based; conditions: 48 hours incubation, read-out: IC50 [MTT Assays] U266BL (Multiple Myeloma)
Procedure: as §2

[2] = test system: HS-Sultan (Multiple Myeloma); experiment: MTT cytotoxicity assay, HS-Sultan cells, 48 hours; format: cell-based; conditions: 48 hours incubation, read-out: IC50 [MTT Assays] HS-Sultan (Multiple Myeloma)
Procedure: as §2

BT-20 (Breast Cancer) = experiment: MTT cytotoxicity assay, BT-20 cells, 48 hours; format: cell-based; conditions: 48 hours incubation, read-out: IC50 [MTT Assays] BT-20 (Breast Cancer)
Procedure: as §2

PC3 (Prostate Cancer) = experiment: MTT cytotoxicity assay, PC3 cells, 48 hours; format: cell-based; conditions: 48 hours incubation, read-out: IC50 [MTT Assays] PC3 (Prostate Cancer)
Procedure: as §2

U373 (Brain Tumor) = experiment: MTT cytotoxicity assay, U373 cells, 48 hours; format: cell-based; conditions: 48 hours incubation, read-out: IC50 [MTT Assays] U373 (Brain Tumor)
Procedure: as §2

[3] = test system: MDA-MB-231 (Breast Cancer); experiment: MTT cytotoxicity assay, MDA-MB-231 cells, 48 hours; format: cell-based; conditions: 48 hours incubation, read-out: IC50 [MTT Assays] MDA-MB-231 (Breast Cancer)
Procedure: as §2

[4] = test system: B-lineage acute lymphoblastic leukemia (NALM-6) cells; experiment: In situ apoptosis assay (TUNEL), NALM-6 cells; format: cell-based, human; conditions: 5 μM, 48 hours
Procedure: (§3) The effectiveness of inducing apoptosis by compound (5) as synthesized and described in example 2 was measured for human B-lineage acute lymphoblastic leukemia (NALM-6) cells, T-lineage acute lymphoblastic leukemia (MOLT-3) cells, and multiple myeloma (ARH-77) cells. The cells were incubated with concentrations of 5 μM of compound (5) in 96-well plates 48 hours. An in situ apoptosis assay, which allows the detection of exposed 3′-hydroxyl groups in fragmented DNA by TdT-mediated dUTP nick-end labeling (TUNEL), was used by fixing, permeabilizing and visualizing the DNA degradation. Apoptotic nuclei were detected visually with a color change. The amount of apoptotic nuclei of the control cells (not incubated with compound (5)) and the incubated cells were compared.

[5] = test system: T-lineage acute lymphoblastic leukemia (MOLT-3) cells; experiment: In situ apoptosis assay (TUNEL), MOLT-3 cells; format: cell-based, human; conditions: 5 μM, 48 hours
Procedure: as §3

[6] = test system: multiple myeloma (ARH-77) cells; experiment: In situ apoptosis assay (TUNEL), ARH-77 cells; format: cell-based, human; conditions: 5 μM, 48 hours
Procedure: as §3

[7] = test system: B-lineage acute lymphoblastic leukemia (NALM-6) cells; experiment: Clonogenic growth assay, NALM-6 cells; format: cell-based, human; conditions: 24 hours exposure, 7 days culture
Procedure: (§4) The effect on clonogenic growth of human cancer cell lines was determined for compound (5) as synthesized and described in example 2 and cisplastin for human B-lineage acute lymphoblastic leukemia (NALM-6) cells and T-lineage acute lymphoblastic leukemia (MOLT-3) cells. The cells were incubated with concentrations ranging from 0 (control) to 10 μM of the appropriate compound for 24 hours at 37° C. in a humidified 5% CO2 atmosphere. The cells were then resuspended in clonogenic a-MEM medium containing 0.9% methyl cellulose. 1×10^4 cells/dish were plated in 35 mm Petri dishes and cultured for 7 days at 37° C. in a humidified 5% CO2 atmosphere. The colonies containing ≧20 cells were counted using an inverted phase microscope.

[8] = test system: T-lineage acute lymphoblastic leukemia (MOLT-3) cells; experiment: Clonogenic growth assay, MOLT-3 cells; format: cell-based, human; conditions: 24 hours exposure, 7 days culture
Procedure: as §4

For `N.N.[Cl][Pt][Cl]` [Cisplatin, reference compound], the IC50 (NALM-6 (Leukemia)) was 1.1 ± 0.02 µM, the IC50 (MOLT-3 (Leukemia)) was 1.04 ± 0.02 µM and the IC50 [1] was 15.6 ± 3.5 µM. For the same compound, the IC50 [2] was 31.8 ± 7.2 µM, the IC50 (BT-20 (Breast Cancer)) was 7.21 ± 3.5 µM and the IC50 (PC3 (Prostate Cancer)) was over 250 µM. For the same compound, the IC50 (U373 (Brain Tumor)) was over 250 µM.
cis-[Pt(CPDCA)(DACH)]H2O [(5) DDE250] was tested, and the IC50 (NALM-6 (Leukemia)) was 0.45 ± 0.02 µM, the IC50 (MOLT-3 (Leukemia)) was 0.66 ± 0.01 µM and the IC50 [1] was 18.6 ± 2.1 µM. The IC50 [2] was 21.5 ± 3.5 µM, the IC50 (BT-20 (Breast Cancer)) was 21.3 ± 3.1 µM and the IC50 [3] was 38.5 ± 6.4 µM. For the same compound, the IC50 (PC3 (Prostate Cancer)) was over 250 µM, the IC50 (U373 (Brain Tumor)) was over 250 µM and the “apoptosis (apoptotic nuclei, TUNEL) over the control” value (“apoptosis … over the control” for short) [4] was “greatly increased apoptosis over the control”. For the same compound, the “apoptosis … over the control” value [5] was “greatly increased apoptosis over the control”, the “apoptosis … over the control” value [6] was “greatly increased apoptosis over the control” and the “% Inhibition (clonogenic growth)” value ([7]; NALM-6, 0.01 μM) was 42.9%. For the same compound, the “Mean No. of Colonies/10^5 cells” value ([7]; NALM-6, 0.01 μM) was 2110 (1928, 2292) Colonies/10^5 cells, the “% Inhibition (clonogenic growth)” value ([7]; NALM-6, 0.1 μM) was 48.4% and the “Mean No. of Colonies/10^5 cells” value ([7]; NALM-6, 0.1 μM) was 1908 (1886, 1930) Colonies/10^5 cells. The “% Inhibition (clonogenic growth)” value ([7]; NALM-6, 1 μM) was 93.3%, the “Mean No. of Colonies/10^5 cells” value ([7]; NALM-6, 1 μM) was 248 (228, 268) Colonies/10^5 cells and the “Mean No. of Colonies/10^5 cells” value ([7]; NALM-6, 10 μM) was 0 Colonies/10^5 cells. For the same compound, the “% Inhibition (clonogenic growth)” value ([8]; MOLT-3, 0.01 μM) was 67.7%, the “Mean No. of Colonies/10^5 cells” value ([8]; MOLT-3, 0.01 μM) was 1182 (1080, 1284) Colonies/10^5 cells and the “% Inhibition (clonogenic growth)” value ([8]; MOLT-3, 0.1 μM) was 67.5%. For the same compound, the “Mean No. of Colonies/10^5 cells” value ([8]; MOLT-3, 0.1 μM) was 1188 (1095, 1281) Colonies/10^5 cells, the “% Inhibition (clonogenic growth)” value ([8]; MOLT-3, 1 μM) was 95.1% and the “Mean No. of Colonies/10^5 cells” value ([8]; MOLT-3, 1 μM) was 179 (170, 188) Colonies/10^5 cells. For the same compound, the “Mean No. of Colonies/10^5 cells” value ([8]; MOLT-3, 10 μM) was 0 Colonies/10^5 cells.
With “cis-[Pt(CPDCA)(NH2C2H4OH)2] [(3) DDE248]” the IC50 (NALM-6 (Leukemia)) was 75.3 ± 5.2 µM, the IC50 (MOLT-3 (Leukemia)) was 33.5 ± 4.5 µM and the IC50 (BT-20 (Breast Cancer)) was 48.9 ± 7.3 µM. The IC50 (PC3 (Prostate Cancer)) was 248 ± 9.3 µM and the IC50 (U373 (Brain Tumor)) was 130 ± 8.2 µM.
cis-[Pt(CPDCA)(NH3)2]H2O [(6) DDE173] gave an IC50 (NALM-6 (Leukemia)) of 90.8 ± 6.2 µM, an IC50 (MOLT-3 (Leukemia)) of 41.8 ± 3.5 µM and an IC50 (BT-20 (Breast Cancer)) of over 250 µM. The IC50 (PC3 (Prostate Cancer)) was over 250 µM and the IC50 (U373 (Brain Tumor)) was over 250 µM.
